# From US20240025883A1, “PYRIMIDIN-2-YL SULFONAMIDE DERIVATIVES” (Hoffmann-La Roche Inc., priority 2021, published 2024)
# Target: human GPR17 short isoform (Homo sapiens (Human), UniProt Q13304)
# Test: GPR17 cAMP assay (hGPR17 cAMP, antagonist mode against EC80 of MDL29,951)
# Assay type: cell-based
# Details: CHO-K1 cells stably expressing human GPR17 short isoform; EC80 of agonist MDL29,951; forskolin 15 μM
# Method in brief: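 CHO-K1 cells stably expressing untagged human GPR17 short isoform, 10,000/well in HBSS/10 mM HEPES/0.1% BSA pH 7.4. Compounds added with EC80 MDL29,951 and 0.5 mM IBMX, then 15 μM forskolin 5 min later, 30 min at room temperature; cAMP by TR-FRET, normalized to reference antagonist, sigmoidal fit.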
# Sequence of human GPR17 short isoform (Q13304 29-367): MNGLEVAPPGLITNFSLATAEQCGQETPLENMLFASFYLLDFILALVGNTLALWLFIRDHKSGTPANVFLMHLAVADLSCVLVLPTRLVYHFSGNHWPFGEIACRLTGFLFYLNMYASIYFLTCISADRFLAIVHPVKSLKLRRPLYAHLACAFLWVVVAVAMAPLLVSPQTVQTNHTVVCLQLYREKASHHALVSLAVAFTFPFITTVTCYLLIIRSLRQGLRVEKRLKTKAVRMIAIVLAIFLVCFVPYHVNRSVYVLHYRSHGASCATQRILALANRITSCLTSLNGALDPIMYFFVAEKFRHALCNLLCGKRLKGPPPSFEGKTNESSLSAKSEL
row,Structure (SMILES),IC50
1,"COc1nc(NS(=O)(=O)c2csc3nc(Br)ccc23)ncc1CCC#N [Example 149, 6-bromo-N-[5-(2-cyanoethyl)-4-methoxy-pyrimidin-2-yl]thieno[2,3-b]pyridine-3-sulfonamide]",147 nM
2,"COc1nc(NS(=O)(=O)c2c[nH]c3cc(Cl)ccc23)ncc1C1COC1 [Example 50, 6-chloro-N-[4-methoxy-5-(oxetan-3-yl)pyrimidin-2-yl]-1H-indole-3-sulfonamide]",2790 nM
3,"COc1nc(NS(=O)(=O)c2c[nH]c3cc(Cl)ccc23)ncc1C(C)(F)F [Example 136, 6-chloro-N-[5-(1,1-difluoroethyl)-4-methoxy-pyrimidin-2-yl]-1H-indole-3-sulfonamide]",747 nM
4,"COc1nc(NS(=O)(=O)c2c[nH]c3cc(Cl)ccc23)ncc1C#N [Example 23, 6-chloro-N-(5-cyano-4-methoxy-pyrimidin-2-yl)-1H-indole-3-sulfonamide]",256 nM
5,"COc1nc(NS(=O)(=O)c2c[nH]c3cc(C(F)F)ccc23)ncc1OC(F)(F)CF [Example 100, 6-(difluoromethyl)-N-[4-methoxy-5-(1,1,2-trifluoroethoxy)pyrimidin-2-yl]-1H-indole-3-sulfonamide]",160 nM
6,"COc1nc(NS(=O)(=O)c2c[nH]c3cc(Cl)ccc23)ncc1OCC(F)F [Example 135, 6-chloro-N-[5-(2,2-difluoroethoxy)-4-methoxy-pyrimidin-2-yl]-1H-indole-3-sulfonamide]",187 nM
7,"COc1nc(NS(=O)(=O)c2c[nH]c3cc(Cl)ccc23)ncc1SC(F)F [Example 37, 6-chloro-N-[5-(difluoromethylthio)-4-methoxy-pyrimidin-2-yl]-1H-indole-3-sulfonamide]",68 nM
8,"COc1nc(NS(=O)(=O)c2c[nH]c3cc(Cl)ccc23)nc(OC)c1CCS(C)(=O)=O [Example 281, 6-Chloro-N-[4,6-Dimethoxy-5-(2-Methylsulfonylethyl)Pyrimidin-2-Yl]-1H-Indole-3-Sulfonamide]",237 nM
9,"COc1nc(NS(=O)(=O)c2c[nH]c3nc(Br)ccc23)ncc1CC(F)F [Example 200, 6-bromo-N-[5-(2,2-difluoroethyl)-4-methoxy-pyrimidin-2-yl]-1H-pyrrolo[2,3-b]pyridine-3-sulfonamide]",66 nM
10,"COCCOc1cnc(NS(=O)(=O)c2c[nH]c3cc(Cl)ccc23)nc1OC [Example 7, 6-chloro-N-[4-methoxy-5-(2-methoxyethoxy)pyrimidin-2-yl]-1H-indole-3-sulfonamide]",403 nM
11,"COc1nc(NS(=O)(=O)c2csc3nc(Br)ccc23)ncc1OC(F)(F)CF [Example 147, 6-bromo-N-[4-methoxy-5-(1,1,2-trifluoroethoxy)pyrimidin-2-yl]thieno[2,3-b]pyridine-3-sulfonamide]",104 nM
12,"COc1nc(NS(=O)(=O)c2c[nH]c3nc(Cl)ccc23)ncc1OC(F)F [Example 119, 6-chloro-N-[5-(difluoromethoxy)-4-methoxy-pyrimidin-2-yl]-1H-pyrrolo[2,3-b]pyridine-3-sulfonamide]",161 nM
13,"COc1nc(NS(=O)(=O)c2c[nH]c3c(N4CCOCC4)c(Cl)ccc23)nc(OC)c1CC(F)F [Example 133, 6-chloro-N-[5-(2,2-difluoroethyl)-4,6-dimethoxy-pyrimidin-2-yl]-7-morpholino-1H-indole-3-sulfonamide]",76 nM
14,"COc1nc(NS(=O)(=O)c2c[nH]c3c(Br)cccc23)nc(OC)c1CC(F)F [Example 134, 7-bromo-N-[5-(2,2-difluoroethyl)-4,6-dimethoxy-pyrimidin-2-yl]-1H-indole-3-sulfonamide]",124 nM
15,"COCc1nc(NS(=O)(=O)c2c[nH]c3cc(Cl)ccc23)nc(OC)c1Br [Example 81, N-[5-bromo-4-methoxy-6-(methoxymethyl)pyrimidin-2-yl]-6-chloro-1H-indole-3-sulfonamide]",5700 nM

# Other lines, results leading:
row,IC50,Structure (SMILES)
1,39 nM,"COc1nc(NS(=O)(=O)c2csc3nc(Br)ccc23)nc(OC)c1CC(F)F [Example 150, 6-bromo-N-[5-(2,2-difluoroethyl)-4,6-dimethoxy-pyrimidin-2-yl]thieno[2,3-b]pyridine-3-sulfonamide]"
2,20 nM,"COc1nc(NS(=O)(=O)c2c[nH]c3c2ccc2cccnc23)nc(OC)c1CC(F)F [Example 169, N-[5-(2,2-difluoroethyl)-4,6-dimethoxy-pyrimidin-2-yl]-1H-pyrrolo[3,2-h]quinoline-3-sulfonamide]"
3,13 nM,"COc1nc(NS(=O)(=O)c2c[nH]c3cc(Cl)ccc23)nc(OC)c1CCF [Example 59, 6-chloro-N-[5-(2-fluoroethyl)-4,6-dimethoxy-pyrimidin-2-yl]-1H-indole-3-sulfonamide]"
4,20 nM,"COc1nc(NS(=O)(=O)c2c[nH]c3c(C)c(Cl)ccc23)ncc1CC(F)F [Example 192, 6-chloro-N-[5-(2,2-difluoroethyl)-4-methoxy-pyrimidin-2-yl]-7-methyl-1H-indole-3-sulfonamide]"
5,17 nM,"COc1nc(NS(=O)(=O)c2c[nH]c3c(F)c(Cl)ccc23)nc(OC)c1CC(F)F [Example 217, 6-chloro-N-[5-(2,2-difluoroethyl)-4,6-dimethoxy-pyrimidin-2-yl]-7-fluoro-1H-indole-3-sulfonamide]"
6,34 nM,"COc1nc(NS(=O)(=O)c2c[nH]c3c(F)c(Cl)ccc23)ncc1CC(F)F [Example 124, 6-chloro-N-[5-(2,2-difluoroethyl)-4-methoxy-pyrimidin-2-yl]-7-fluoro-1H-indole-3-sulfonamide]"
7,36 nM,"COc1nc(NS(=O)(=O)c2c[nH]c3nc(Cl)ccc23)nc(OC)c1CCC#N [Example 122, 6-chloro-N-[5-(2-cyanoethyl)-4,6-dimethoxy-pyrimidin-2-yl]-1H-pyrrolo[2,3-b]pyridine-3-sulfonamide]"
8,33 nM,"COc1nc(NS(=O)(=O)c2c[nH]c3c(F)c(Br)ccc23)ncc1CC(F)F [Example 191, 6-bromo-N-[5-(2,2-difluoroethyl)-4-methoxy-pyrimidin-2-yl]-7-fluoro-1H-indole-3-sulfonamide]"
9,45 nM,"COc1nc(NS(=O)(=O)c2csc3cc(Cl)ccc23)ncc1CC(F)F [Example 154, 6-chloro-N-[5-(2,2-difluoroethyl)-4-methoxy-pyrimidin-2-yl]benzothiophene-3-sulfonamide]"
10,65 nM,"COc1nc(NS(=O)(=O)c2c[nH]c3cc(Cl)ccc23)nc(OC)c1CC#N [Example 67, 6-chloro-N-[5-(cyanomethyl)-4,6-dimethoxy-pyrimidin-2-yl]-1H-indole-3-sulfonamide]"
11,43 nM,"COc1nc(NS(=O)(=O)c2c[nH]c3c(F)c(Cl)ccc23)ncc1CCC#N [Example 216, 6-chloro-N-[5-(2-cyanoethyl)-4-methoxy-pyrimidin-2-yl]-7-fluoro-1H-indole-3-sulfonamide]"
12,25 nM,"COc1nc(NS(=O)(=O)c2c[nH]c3nc(C(F)F)ccc23)nc(OC)c1CCC(F)F [Example 98, 6-(difluoromethyl)-N-[5-(3,3-difluoropropyl)-4,6-dimethoxy-pyrimidin-2-yl]-1H-pyrrolo[2,3-b]pyridine-3-sulfonamide]"
13,38 nM,"COc1nc(NS(=O)(=O)c2c[nH]c3c(C(F)F)c(Cl)ccc23)ncc1CC(F)F [Example 214, 6-chloro-N-[5-(2,2-difluoroethyl)-4-methoxy-pyrimidin-2-yl]-7-(difluoromethyl)-1H-indole-3-sulfonamide]"
